# Where a SMILES comes first, the peptide text is derived from it. Where no end group is shown, it is not given here. Side-chain parts run from the residue outwards. vinylsulfone = vinylsulfone linkage of the PEG to the cysteine sulfhydryl (non-reducible, from PEG-vinylsulfone)
# Tests used:
# [1] = Serum stability of DNA condensates in DNase I augmented mouse serum; format: in vitro ADME; details: 50% serum containing 0.12 units of DNase I, 37° C.
# Procedure: DNA condensates (100 μL) were combined with 100 μL of DNase I augmented mouse serum (0.12 U of DNase I per 100 μl serum) and 3 μL of 5 M sodium chloride to bring the final salt concentration to 150 mM. Samples were incubated at 37° C. for 3 h while rapidly freezing 20 μL aliquots at time points ranging from 0 to 180 min. Serum samples were processed by adding 3 μL (0.31 U) of proteinase K and then incubated at 37° C. for 30 min to remove endonuclease activity. Sodium chloride was then added (4.6 μL of 5 M) along with trypsin (3 μL containing 7 U) and allowed to digest for 12 h at 37° C. to remove the crosslinked peptide. Samples were applied to a 1% agarose gel containing 0.05% SDS and electrophoresed as described above.
# [2] = system: HepG2 cells; assay: Cytotoxicity in cell culture: total protein of cell homogenates 24 h after transfection; format: cell-based; details: 1-4 mol equivalents of glutaraldehyde corresponding to 1.5-6 μM
# Procedure: HepG2 cells (3×10^5) were plated on 6×35 mm wells and grown for 48 h to 40% confluence in MEM supplemented with 10% fetal calf serum (FCS). Crosslinked DNA condensates (10 μg of DNA in 200 μL) were transfected in triplicate by drop wise addition to cells in 2% FCS either with or without 80 μM chloroquine followed by 5 h incubation, after which the media was replaced with 2 mL of MEM containing 10% fetal calf serum and allowed to incubate for an additional 19 h. Wells were sampled for 10 days at 24 h intervals by removing and freezing (−20° C.) the media and replacing it with 2 mL of fresh 10% FCS MEM.
# The cytotoxity of both free glutaraldehyde and crosslinked DNA condensates were examined in cell culture. The total protein of cell homogenates harvested 24 h after transfecting cells in the presence of free glutaraldehyde or crosslinked DNA condensates were indistinguishable from control, indicated no toxicity when using 1-4 mol equivalents of glutaraldehyde corresponding to 1.5-6 μM.
# [3] = Solubility of peptide DNA condensates: particle size as a function of DNA concentration; format: physicochemical; details: throughout DNA concentrations 0.05-2 mg/ml
# [4] = system: plasmid DNA; assay: Fluorescent dye (thiazole orange) displacement assay of peptide binding to DNA, Example 1; details: corresponding to a charge ratio of 1.8:1
# Procedure: Peptide DNA condensates were formed by adding 75 μg of DNA (pCMVL in 750 μl of 5 mM Hepes pH 7.4) to varying amounts of peptide (7.5 to 90 nmol in 750 μl of Hepes) while vortexing, followed by equilibration at RT for 1 h. Peptide binding to DNA was monitored by a fluorescent dye displacement assay (Wadhwa et al. 1997). A 1 μg aliquot of the peptide DNA condensate was diluted to 1 ml in Hepes containing 0.1 μM thiazole orange. The fluorescence of the intercalated dye was measured on an LS50B fluorimeter (Perkin Elmer, UK) in a microcuvette by exciting at 500 nm while monitoring emission at 530 nm.
# [5] = system: HepG2 cells; assay: Cell binding of 125I-DNA condensates, Example 1; format: cell-based; details: 5 h transfection, 10 μg 125I-DNA condensates
# Procedure: Iodinated plasmid DNA was prepared with specific activity of 300 nCi per μg of DNA as described previously (Teribesi et al., 1998). Prior to forming DNA condensates, the specific activity of the ^125I DNA was adjusted to 4.5 nCi per μg of DNA by combining with unlabeled plasmid. DNA condensates were prepared using AlkCWK18, PEG-SS-CWK18 or PEG-VS-CWK18 as described above. Peptide ^125I-DNA condensates (10 μg) were used to transfer HepG2 cells for 5 h according to the procedure described above. The radioactive media was removed, cells were washed with phosphate buffered saline, harvested with lysis buffer, and the cell-associated radioactivity was quantified by gamma counting.
# [6] = Particle size and zeta potential of peptide DNA condensates after freeze-drying and rehydration, Example 2; format: physicochemical; details: no sucrose
# Procedure: The concentration of AlkCWK18 and PEG-CWK18 were determined by UV absorbance (Trp, ε280 nm=5,600 M^−1 cm^−1). Peptide DNA condensates were prepared in 5 mM Hepes pH 5 at a peptide/DNA stoichiometry of 0.3 nmol of peptide/μg of DNA. The condensates were formed by adding 450 μL of 100 μg/mL NT-βGal drop wise to 450 μL of 30 nmol/mL AlKCWK18 or PEG-CWK18 while vortexing. Each sample was prepared in triplicate, and after a 30 min equilibration, 20-100 μL of 50 wt/vol % solutions of either glucose, mannitol, galactose, dextran or sucrose were added followed by normalization to 1 mL to give a final sugar concentration of 1-5 wt/vol % and DNA concentration of 50 μg/mL.
# The mean particle size of 50 μg/mL AlkCWK18 DNA condensates were determined by quasielastic light scattering (QELS) on a Brookhaven ZetaPlus™. Samples (1 mL) were frozen rapidly in dry ice ethanol in a 1.5 mL microcentrifuge tube and then lyophilized on a Labconco™ freeze dryer for 24 h operated at a constant vacuum of 55×10^−6 mBar while maintained at room temperature (22° C.). The maximal vacuum was achieved within 2 min after applying the sample.
# At the highest sucrose concentration of 5 wt/vol %, samples remained frozen throughout freeze-drying but dried to form a glassy solid after 24 h. […] Freeze-dried samples prepared in triplicate were reconstituted in 1 mL of deionized water, allowed to equilibrate for 30 min and then analyzed by QELS as described above. Large peptide DNA condensates were measured by light microscopy with magnification of 100X. The particle size of PEG-peptide DNA condensates were also measured by transmission electron microscopy (TEM) according to a published procedure (Wadhwa et al., 1997).
# The relationship between pH and rehydrated peptide DNA condensate particle size was examined in 5 mM Hepes at a pH range of 3-7. The particle size of 50 μg/mL DNA condensates in 5 wt/vol % sucrose was determined by QELS before and after freeze-drying as described above.
# The rehydrated particle size of AlkCWK18 or PEG-CWK18 DNA condensates were also examined at a concentration of 0.05-5 mg/mL in 5 mM Hepes pH 5 with (AlkCWK18 DNA) or without (PEG-CWK18 DNA) the addition of 5 wt/vol % sucrose. DNA condensates were freeze-dried and reconstituted to the original concentration. QELS particle size analysis before and after freeze-drying required dilution of an aliquot of the sample to concentration of 50 μg/mL. Freeze-dried 5 mg/mL PEG-CWK18 DNA condensates were also reconstituted in 0.9 wt/vol % sodium chloride and analyzed for particle size.
# [7] = system: HepG2 cells; assay: In vitro luciferase gene expression, Example 1; format: cell-based; details: HepG2, 24 h post-transfection, 10 μg DNA, 80 μM chloroquine
# Procedure: HepG2 cells were plated at 1.5×10^5 cells per 35 mm well and grown to 40-70% confluence in MEM supplemented with 10% fetal calf serum (FCS). Peptide DNA condensates (10 μg of DNA) were added dropwise to triplicate sets of cells in 2% FCS containing 80 μM chloroquine. After 5 h incubation at 37° C., the media was replaced with MEM supplemented with 10% FCS, and luciferase expression was determined at 24 h. Cells were washed twice with ice-cold phosphate buffered saline (calcium and magnesium free) and then treated with 0.5 ml of ice-cold lysis buffer (25 mM Tris hydrochloride pH 7.8, 1 mM EDTA, 8 mM magnesium chloride, 1% Triton X-100, 1 mM DTT) for 10 min. The cell lysate was scraped, transferred to 1.5 ml micro centrifuge tubes, and centrifuged for 7 min at 13,000 g at 4° C. to pellet debris.
# Lysis buffer (300 μl), sodium-ATP (4 μl of a 180 mM solution, pH 7, 4° C.) and cell lysate (100 μl, 4° C.) were combined in a test tube, briefly mixed and immediately placed in the luminometer. Luciferase relative light units (RLU) were recorded on a Lumat™ LB 9501 (Berthold Systems, Germany) with 10 sec integration after automatic injection of 100 μl of 0.5 mM D-luciferin (prepared fresh in lysis buffer without DTT). […]
# [8] = QELS particle size and zeta potential of PEG-peptide DNA condensates and co-condensates, Example 1; format: physicochemical
# Procedure: The particle size of peptide DNA condensates were analyzed at a DNA concentration of 50 μg/ml in Hepes by quasielastic light scattering (QELS). The particle surface change was determined by zeta potential analysis using a Brookhaven ZetaPlus™ (Brookhaven Instruments).
# DNA co-condensates were prepared by add-mixing AlkCWK18 and PEG-VS-CWK18 in ratios ranging from 0 to 100 mol %, and condensing DNA at a charge ratio of 2.3:1 as described above. To establish the mol ratio of peptides bound to DNA, condensates were dialyzed in a fixed volume (0.5 ml) dialyzer for 75 h against water using a 100,000 MWCO membrane. Peptide DNA condensates in the retentate (0.5 ml) were dissociated by adding 50 μl of 5 M sodium chloride in 0.1% TFA. AlkCWK18 and PEG-VS-CWK18 were quantified by injecting 1 nmol of peptide (100 μl) onto analytical RP-HPLC eluted with 0.1% TFA and a gradient of acetonitrile (5 to 65% over 30 min) while detecting tryptophan by fluorescence (λex 280 nm, λem 350 nm). The peak integration areas were used to quantify AlkCWK18 and PEG-VS-CWK18 with reference to standard curves developed for each peptide.
compound,measurement,setting,value
"NCCCC[C@H](NC(=O)[C@H](CCCCN)NC(=O)[C@H](CCCCN)NC(=O)[C@H](CCCCN)NC(=O)[C@H](CCCCN)NC(=O)[C@H](CCCCN)NC(=O)[C@H](CCCCN)NC(=O)[C@H](CCCCN)NC(=O)[C@H](CCCCN)NC(=O)[C@H](CCCCN)NC(=O)[C@H](CCCCN)NC(=O)[C@H](CCCCN)NC(=O)[C@H](CCCCN)NC(=O)[C@H](CCCCN)NC(=O)[C@H](CCCCN)NC(=O)[C@H](CCCCN)NC(=O)[C@H](CCCCN)NC(=O)[C@H](CCCCN)NC(=O)[C@H](Cc1c[nH]c2ccccc12)NC(=O)[C@@H](N)CS)C(=O)O [CWK18, Cys-Trp-Lys18] (H-CWKKKKKKKKKKKKKKKKKK-OH; N-terminus and C-terminus assumed)",time of stability of DNA before metabolism into oligonucleotides,[1],60 min
O=CCCCC=O [glutaraldehyde],cytotoxicity,[2],no toxicity
PEG-VS-CWK18: non-reducible PEG-peptide from PEG-vinylsulfone (5 kDa) and the sulfhydryl of CWK18 (C([vinylsulfone-PEG 5 kDa])WKKKKKKKKKKKKKKKKKK),mean diameter of DNA condensates,[3],< 100 nm
same,peptide:DNA stoichiometry at the asymptote of the dye displacement titration curve (relative DNA binding affinity),[4],0.3 nmol per μg of DNA
same,"cell associated 125I-DNA, percent of dose",[5],0.2%
same,particle diameter of freeze-dried and rehydrated DNA condensates by TEM,[6]; 5 mg/mL DNA,less than 100 nm
same,DNA concentration up to which particle size was retained on rehydration,[6]; rehydrated in water or normal saline,5 mg/mL
same,reduction of spontaneous gene transfer (luciferase expression) relative to AlkCWK18 DNA condensates,[7],1000 fold
same,zeta potential of DNA condensates,[8]; charge ratio 1.8:1,+10 mV
same,mean diameter of DNA condensates,"[8]; charge ratio of 1.8:1 or higher, 50 μg/ml DNA in Hepes",90 nm

# Reference: US6770740B1, “Crosslinked DNA condesate compositions and gene delivery methods” (The Regents of the University of Michigan, priority 1999, dated 2004)
